Patent US20230017786A1, “DEXTR[…] A DISEASE-MODIFYING TREATMENT FOR NEUROPSYCHIATRIC DISORDERS AND DISEASES” (priority 2020, published 2023)
Where “and” joins values, the source holds several entries; their conditions need not be identical. Equal values may be shown once. Where a name gives a salt, the structure may show the parent alone.

Legend:
[1] = target: T1, human NMDA receptor GluN1-GluN2A (Homo sapiens, UniProt Q05586+Q12879); assay: FLIPR calcium assay, test item effect on L-glutamate CRC, GluN1-GluN2A-CHO; assay type: cell-based
T1 construct: expressed in transfected cells; host or cells: CHO
Protocol: (§1) FLIPR determination of intracellular calcium level was used as a read-out for NMDAR activation.
(§2) 400× compound plate was stored at −20° C. until FLIPR experimental day.
(§3) 4× compound plate was generated from 400× compound plate by addition of up to 30 μl/well of compound buffer on FLIPR experimental day.
(§4) A FLIPR system was used to monitor intracellular calcium level in NMDAR cell lines, pre-loaded for 1 hour with Fluo-4, and then washed with assay buffer.
(§5) Y=Bottom+(Top−Bottom)/(1+10^((LogEC50−Log[A])*HillSlope))

[2] = target: T2, human NMDA receptor GluN1-GluN2B (Homo sapiens, UniProt Q05586+Q13224); assay: cell-based; assay type: cell-based
T2 construct: expressed in transfected cells; host or cells: CHO
Protocol: as §1, §2, §3, §4, §5

[3] = target: T3, human NMDA receptor GluN1-GluN2C (Homo sapiens, UniProt Q05586+Q14957); assay: FLIPR calcium assay, test item effect on L-glutamate CRC, GluN1-GluN2C-CHO; assay type: cell-based
T3 construct: expressed in transfected cells; host or cells: CHO
Protocol: as §1, §2, §3, §4, §5

[4] = target: T4, human NMDA receptor GluN1-GluN2D (Homo sapiens, UniProt O15399+Q05586); assay: FLIPR calcium assay, test item effect on L-glutamate CRC, GluN1-GluN2D-CHO; assay type: cell-based
T4 construct: expressed in transfected cells; host or cells: CHO
Protocol: as §1, §2, §3, §4, §5

[5] = tested on: diheteromeric human recombinant NMDAR containing GluN1 plus GluN2A, GluN2B, GluN2C or GluN2D; assay: FLIPR calcium assay, statements for all four NMDAR subtypes together; assay type: cell-based; conditions: 6 test item concentrations
Text: An operational equation for allosteric modulators (Leach K, Sexton P M and Christopoulos A, Allosteric GPCR modulators: taking advantage of permissive receptor pharmacology, Trends Pharmacol. Sci. 28: 382-389, 2007; Kenakin T P, Overview of receptor interaction of agonists and antagonists, Curr. Protoc. Pharmacol. Chapter 4: Unit 4.1, 2008, Kenakin T P, Biased signalling and allosteric machines: new vistas and challenges for drug discovery, Br. J. Pharmacol. 165: 1659-1669, 2012) was created in Prism 8 (GraphPad) software to estimate KB and a parameters for every test item, with the assumption that, as a pore blocker, every test item would be able to produce a compete blockade of agonist response, at sufficiently high concentration: […]

[6] = tested on: NMDA receptors of cultured rat cortical neurons; conditions: Mealing et al., 1999; cited from earlier work
[7] = target: T5, human GluN1-GluN2C NMDA receptor (Homo sapiens, UniProt Q05586+Q14957); assay: Manual patch clamp trapping assay, hGluN1/hGluN2C-CHO cells; conditions: test item 1 μM, hydrochloride
Text: Manual patch clamp recordings occurred at −70 mV.
hGluN1/hGluN2C-CHO cells grown on poly-D-lysine coated glass coverslips were studied by manual patch clamp whole cell recording.
(§6) Recordings occurred at −70 mV fixed voltage equal to holding potential.

[8] = target: T5, human GluN1-GluN2C NMDA receptor; assay: Manual patch clamp on-/off-rate assay, hGluN1/hGluN2C-CHO cells; conditions: for % Current (mean ± SEM): 10/10 μM L-glutamate/glycine induced current, hGluN1/hGluN2C-CHO; for Tau-off: continuous 10/10 μM L-glutamate/glycine; for I2 (% current): current after 50 seconds removal of test item; for Tau-on: 10/10 μM L-glutamate/glycine; for % block of 10/10 μM L-glutamate/glycine induced current: −70 mV, no Mg2+
Protocol: Manual patch clamp recordings occurred at −70 mV. […] Tau-on and tau-off were estimated by curve fitting to first order exponential equations.
Test items were evaluated using a manual patch clamp whole-cell recording methodology, using HEKA Elektronik Patchmaster system, coupled to BioLogic RSC-160 perfusion device (BioLogic, Seyssinet-Pariset, France).
hGluN1/hGluN2C-CHO cells grown on poly-D-lysine coated glass coverslips were studied by manual patch clamp whole cell recording. Extracellular and intracellular solutions for patch clamp recording had following composition:
as §6
Test item on-/off-rates were measured by curve fitting the development of their induced current block, or relief from it.
At least n=10 independent cells were analysed. […] Time constant of onset (tau-on, seconds) and offset (tau-off, seconds) of test item inhibition of glutamate induced current were calculated using first order exponential equations as shown below:
I(t)=I1+(I2−I1)×(1−e^−t/τoff)

[9] = highest affinity for a NMDAR subtype = 100%
[10] = operational analysis for allosteric modulators
[11] = 10 μM test item, offset fitting

T5 sequence (Q14957 20-1233, other chains not shown): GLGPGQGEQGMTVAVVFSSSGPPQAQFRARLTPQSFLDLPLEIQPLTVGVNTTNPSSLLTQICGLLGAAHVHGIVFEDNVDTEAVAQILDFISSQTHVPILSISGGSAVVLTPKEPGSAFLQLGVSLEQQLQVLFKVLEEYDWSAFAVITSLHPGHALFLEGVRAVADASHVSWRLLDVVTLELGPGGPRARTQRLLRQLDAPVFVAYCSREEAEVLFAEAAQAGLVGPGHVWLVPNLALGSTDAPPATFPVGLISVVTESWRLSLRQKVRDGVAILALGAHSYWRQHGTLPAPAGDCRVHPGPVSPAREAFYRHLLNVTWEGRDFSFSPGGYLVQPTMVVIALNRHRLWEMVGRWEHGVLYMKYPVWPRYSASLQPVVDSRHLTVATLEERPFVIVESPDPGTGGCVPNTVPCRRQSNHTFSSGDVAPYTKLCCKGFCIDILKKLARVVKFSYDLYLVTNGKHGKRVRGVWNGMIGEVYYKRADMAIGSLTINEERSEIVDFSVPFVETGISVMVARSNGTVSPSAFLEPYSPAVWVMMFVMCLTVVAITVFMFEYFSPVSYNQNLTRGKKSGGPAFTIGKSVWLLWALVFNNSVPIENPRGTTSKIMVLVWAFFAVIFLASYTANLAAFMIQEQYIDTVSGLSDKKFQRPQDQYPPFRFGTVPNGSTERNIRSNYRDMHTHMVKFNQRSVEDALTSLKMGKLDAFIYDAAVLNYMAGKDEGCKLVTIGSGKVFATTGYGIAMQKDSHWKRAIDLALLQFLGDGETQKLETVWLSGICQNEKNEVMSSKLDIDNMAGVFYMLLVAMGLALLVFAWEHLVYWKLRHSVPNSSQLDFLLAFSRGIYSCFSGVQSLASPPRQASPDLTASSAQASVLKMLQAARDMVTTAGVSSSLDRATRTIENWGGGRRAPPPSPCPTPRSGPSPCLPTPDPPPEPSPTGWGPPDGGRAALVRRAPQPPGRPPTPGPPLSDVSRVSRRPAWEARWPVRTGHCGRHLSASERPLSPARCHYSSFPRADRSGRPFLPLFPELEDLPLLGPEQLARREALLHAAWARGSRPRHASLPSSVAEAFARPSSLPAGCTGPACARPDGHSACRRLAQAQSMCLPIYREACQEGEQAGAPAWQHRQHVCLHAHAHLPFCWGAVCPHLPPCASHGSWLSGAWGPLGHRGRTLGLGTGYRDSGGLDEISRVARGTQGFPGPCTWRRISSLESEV
T3 sequence (Q14957 20-1233, other chains not shown): as above
T4 sequence (O15399 28-1336, other chains not shown): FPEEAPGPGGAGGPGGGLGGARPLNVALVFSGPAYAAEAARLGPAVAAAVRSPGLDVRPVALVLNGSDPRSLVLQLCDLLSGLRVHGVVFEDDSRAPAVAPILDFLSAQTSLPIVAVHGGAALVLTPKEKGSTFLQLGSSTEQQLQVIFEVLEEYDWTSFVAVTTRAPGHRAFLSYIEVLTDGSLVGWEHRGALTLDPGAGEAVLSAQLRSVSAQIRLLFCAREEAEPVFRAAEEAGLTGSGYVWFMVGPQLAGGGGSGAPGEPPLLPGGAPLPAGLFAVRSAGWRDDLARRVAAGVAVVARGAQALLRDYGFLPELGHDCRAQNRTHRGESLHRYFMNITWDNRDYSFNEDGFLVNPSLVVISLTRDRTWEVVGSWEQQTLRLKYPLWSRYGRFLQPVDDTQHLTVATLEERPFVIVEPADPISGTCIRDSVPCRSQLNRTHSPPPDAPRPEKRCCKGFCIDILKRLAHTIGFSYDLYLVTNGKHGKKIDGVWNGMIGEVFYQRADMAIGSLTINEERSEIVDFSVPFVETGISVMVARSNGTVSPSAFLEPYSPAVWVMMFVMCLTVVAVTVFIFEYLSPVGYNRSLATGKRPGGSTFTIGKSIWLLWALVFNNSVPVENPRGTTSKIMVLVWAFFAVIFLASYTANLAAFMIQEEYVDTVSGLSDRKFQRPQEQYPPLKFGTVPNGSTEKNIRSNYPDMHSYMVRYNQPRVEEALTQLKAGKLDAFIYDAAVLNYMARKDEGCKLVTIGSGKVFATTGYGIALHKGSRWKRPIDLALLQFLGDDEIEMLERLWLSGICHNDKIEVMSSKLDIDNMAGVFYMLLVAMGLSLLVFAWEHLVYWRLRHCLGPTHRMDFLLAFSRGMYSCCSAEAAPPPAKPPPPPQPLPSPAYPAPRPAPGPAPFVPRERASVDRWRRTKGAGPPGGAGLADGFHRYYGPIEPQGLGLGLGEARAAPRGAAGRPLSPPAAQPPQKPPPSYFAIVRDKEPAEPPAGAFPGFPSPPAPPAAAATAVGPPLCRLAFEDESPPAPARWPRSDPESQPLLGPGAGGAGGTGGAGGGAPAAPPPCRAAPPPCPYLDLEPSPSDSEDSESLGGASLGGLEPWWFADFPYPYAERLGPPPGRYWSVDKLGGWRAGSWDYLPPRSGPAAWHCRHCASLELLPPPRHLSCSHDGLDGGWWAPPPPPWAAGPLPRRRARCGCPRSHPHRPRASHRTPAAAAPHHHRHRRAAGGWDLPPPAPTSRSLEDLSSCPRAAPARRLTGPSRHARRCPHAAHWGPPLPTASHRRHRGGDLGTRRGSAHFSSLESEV
T2 sequence (Q13224 27-1484, other chains not shown): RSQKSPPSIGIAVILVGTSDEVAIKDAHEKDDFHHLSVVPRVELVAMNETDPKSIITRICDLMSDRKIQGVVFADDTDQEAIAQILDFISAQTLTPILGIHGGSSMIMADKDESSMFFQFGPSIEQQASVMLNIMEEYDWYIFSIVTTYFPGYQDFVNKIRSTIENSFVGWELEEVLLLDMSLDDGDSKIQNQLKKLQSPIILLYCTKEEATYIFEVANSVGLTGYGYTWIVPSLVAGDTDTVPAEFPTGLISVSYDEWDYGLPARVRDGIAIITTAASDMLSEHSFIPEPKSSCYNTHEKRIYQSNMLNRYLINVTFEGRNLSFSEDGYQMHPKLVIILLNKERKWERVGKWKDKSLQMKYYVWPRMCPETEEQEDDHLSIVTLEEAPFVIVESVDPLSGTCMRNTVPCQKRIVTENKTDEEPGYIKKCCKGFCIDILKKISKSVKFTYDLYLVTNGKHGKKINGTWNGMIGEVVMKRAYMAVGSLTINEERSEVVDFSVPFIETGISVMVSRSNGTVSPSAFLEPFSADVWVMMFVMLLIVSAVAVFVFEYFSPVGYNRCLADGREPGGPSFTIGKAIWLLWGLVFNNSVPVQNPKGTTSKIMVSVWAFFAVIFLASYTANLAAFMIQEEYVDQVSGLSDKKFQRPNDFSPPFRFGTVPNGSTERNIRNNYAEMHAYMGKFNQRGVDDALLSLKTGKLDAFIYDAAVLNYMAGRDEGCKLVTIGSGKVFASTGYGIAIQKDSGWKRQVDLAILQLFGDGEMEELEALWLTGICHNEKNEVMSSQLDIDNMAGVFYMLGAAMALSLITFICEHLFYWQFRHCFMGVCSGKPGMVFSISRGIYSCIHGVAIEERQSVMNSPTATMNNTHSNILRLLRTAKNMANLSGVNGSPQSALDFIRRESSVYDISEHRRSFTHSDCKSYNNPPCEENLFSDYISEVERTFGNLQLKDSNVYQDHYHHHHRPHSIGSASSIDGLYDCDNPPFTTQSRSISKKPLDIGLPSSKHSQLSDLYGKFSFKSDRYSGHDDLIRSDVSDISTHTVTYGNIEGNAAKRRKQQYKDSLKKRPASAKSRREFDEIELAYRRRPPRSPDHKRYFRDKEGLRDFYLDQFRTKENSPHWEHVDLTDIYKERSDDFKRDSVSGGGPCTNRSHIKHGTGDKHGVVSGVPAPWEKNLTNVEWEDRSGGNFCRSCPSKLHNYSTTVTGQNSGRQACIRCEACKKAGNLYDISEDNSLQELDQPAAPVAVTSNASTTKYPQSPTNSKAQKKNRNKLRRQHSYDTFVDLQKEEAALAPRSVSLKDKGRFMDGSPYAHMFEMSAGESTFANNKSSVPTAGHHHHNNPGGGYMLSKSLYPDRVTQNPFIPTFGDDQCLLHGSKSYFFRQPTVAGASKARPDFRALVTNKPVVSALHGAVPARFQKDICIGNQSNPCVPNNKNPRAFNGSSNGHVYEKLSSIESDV

## CNC1(c2ccccc2Cl)CCCCC1=O (racemic) [(±)-Ketamine, (±)-ketamine hydrochloride]
[1]
  Kb: 4300 nM
[1]; [9]
  % affinity ratio: 11%
[1]; [10]
  α, estimated cooperativity term: 0.17
[1]; with test item 49 nM
  L-glutamate CRC HillSlope: 1.2
  L-glutamate CRC LogEC50: −6.5
[1]; with test item 195 nM
  L-glutamate CRC HillSlope: 1.2
  L-glutamate CRC LogEC50: −6.5
[1]; with test item 781 nM
  L-glutamate CRC HillSlope: 1.0
  L-glutamate CRC LogEC50: −6.4
[1]; with test item 3.1 μM
  L-glutamate CRC HillSlope: 1.1
  L-glutamate CRC LogEC50: −6.4
[1]; with test item 12.5 μM
  L-glutamate CRC HillSlope: 1.3
  L-glutamate CRC LogEC50: −6.4
[1]; with test item 50 μM
  L-glutamate CRC HillSlope: 1.9
  L-glutamate CRC LogEC50: −6.2
[2]
  % affinity ratio: 42%
  Kb: 1100 nM
  α, estimated cooperativity term: 0.14
[2]; hydrochloride
  L-glutamate CRC HillSlope: 2.0 and 1.4 and 1.1 and 1.2
[3]
  Kb: 460 nM
[3]; from the FLIPR study (Example 1)
  potency with respect to dextromethadone: ~10 fold
[3]; [9]
  % affinity ratio: 100%
[3]; [10]
  α, estimated cooperativity term: 0.13
[3]; with test item 49 nM
  L-glutamate CRC HillSlope: 1.5
  L-glutamate CRC LogEC50: −6.9
[3]; with test item 195 nM
  L-glutamate CRC HillSlope: 1.5
  L-glutamate CRC LogEC50: −6.8
[3]; with test item 781 nM
  L-glutamate CRC HillSlope: 1.3
  L-glutamate CRC LogEC50: −6.6
[3]; with test item 3.1 μM
  L-glutamate CRC HillSlope: 1.2
  L-glutamate CRC LogEC50: −6.6
[3]; with test item 12.5 μM
  L-glutamate CRC HillSlope: 2.0
  L-glutamate CRC LogEC50: −6.7
[3]; with test item 50 μM
  L-glutamate CRC HillSlope: 2.5
  L-glutamate CRC LogEC50: −6.4
[4]
  Kb: 1400 nM
[4]; [9]
  % affinity ratio: 33%
[4]; [10]
  α, estimated cooperativity term: 0.15
[4]; with test item 49 nM
  L-glutamate CRC HillSlope: 1.6
  L-glutamate CRC LogEC50: −7.4
[4]; with test item 195 nM
  L-glutamate CRC HillSlope: 1.5
  L-glutamate CRC LogEC50: −7.3
[4]; with test item 781 nM
  L-glutamate CRC HillSlope: 1.4
  L-glutamate CRC LogEC50: −7.2
[4]; with test item 3.1 μM
  L-glutamate CRC HillSlope: 1.8
  L-glutamate CRC LogEC50: −7.1
[4]; with test item 12.5 μM
  L-glutamate CRC HillSlope: 1.6
  L-glutamate CRC LogEC50: −6.9
[4]; with test item 50 μM
  L-glutamate CRC HillSlope: 2.0
  L-glutamate CRC LogEC50: −6.7
[5]
  profile on L-glutamate CRC: insurmountable profile
[6]
  trapping: 86.0%
[7]
  Block trapped (BT), trapping: 86.7%
[7]; listed as (±)-ketamine
  Block (B) of 10/10 μM L-glutamate/glycine-evoked currents: 74.0%±1.2% and 74.0%
  Block trapped (BT), trapping: 86.7%±1.8% and 86.7%
  Residual block (BR): 64.1%±1.3% and 64.1%
[8]; 0.3 μM test item
  % Current (mean ± SEM): 44.2 ± 3.0%
[8]; 1 μM test item
  % Current (mean ± SEM): 74.6 ± 2.2%
[8]; 1 μM test item, offset fitting
  I1 (% current): 28.5 % current
  Tau-off: 151.0 s
  I2 (% current): 95.5 % current
[8]; 1 μM test item, onset fitting
  Tau-on: 47.1 s
[8]; 1 μM test item, onset fitting, current after 30 seconds application of test item
  I1 (% current): 28.7 % current
[8]; 3 μM test item
  % Current (mean ± SEM): 89.7 ± 0.6%
[8]; [11]
  I1 (% current): 4.9 % current
  Tau-off: 163.2 s
  I2 (% current): 102.9 % current
[8]; 10 μM test item, onset fitting
  Tau-on: 9.9 s
[8]; 10 μM test item, onset fitting, current after 30 seconds application of test item
  I1 (% current): 3.6 % current
[8]; test item 0.3 μM, hydrochloride
  % block of 10/10 μM L-glutamate/glycine induced current: 44% and 44.2%±3.0% and 44.2%
[8]; test item 1 μM
  tau-off, mean of single trace fittings: 151.7 ± 6.3 s
  tau-on: 47.1 s
  tau-on, average of single trace fittings: 47.3 ± 1.4 s
[8]; test item 1 μM, hydrochloride
  tau-off: 151 s
  % block of 10/10 μM L-glutamate/glycine induced current: 74.6%±2.2% and 75% and 74.6%
[8]; test item 1 μM, listed as (±)-ketamine, hydrochloride
  tau-off: 151.0 s
[8]; test item 3 μM, hydrochloride
  % block of 10/10 μM L-glutamate/glycine induced current: 90% and 89.7%±0.6% and 89.7%
[8]; test item 10 μM
  tau-off: 163.2 s
  tau-on: 9.9 s
[8]; test item 10 μM, hydrochloride
  % block of 10/10 μM L-glutamate/glycine induced current: 97.2%±0.3% and 97% and 97.2%
